The record followed here is patent publication US20250333383A1, “N-OXIDE COMPOUNDS AND USE THEREOF” (SK BIOPHARMACEUTICALS CO., LTD., priority 2022, published 2025).

Molecules are shown by their SMILES.

T1 sequence (Q15858 whole entry): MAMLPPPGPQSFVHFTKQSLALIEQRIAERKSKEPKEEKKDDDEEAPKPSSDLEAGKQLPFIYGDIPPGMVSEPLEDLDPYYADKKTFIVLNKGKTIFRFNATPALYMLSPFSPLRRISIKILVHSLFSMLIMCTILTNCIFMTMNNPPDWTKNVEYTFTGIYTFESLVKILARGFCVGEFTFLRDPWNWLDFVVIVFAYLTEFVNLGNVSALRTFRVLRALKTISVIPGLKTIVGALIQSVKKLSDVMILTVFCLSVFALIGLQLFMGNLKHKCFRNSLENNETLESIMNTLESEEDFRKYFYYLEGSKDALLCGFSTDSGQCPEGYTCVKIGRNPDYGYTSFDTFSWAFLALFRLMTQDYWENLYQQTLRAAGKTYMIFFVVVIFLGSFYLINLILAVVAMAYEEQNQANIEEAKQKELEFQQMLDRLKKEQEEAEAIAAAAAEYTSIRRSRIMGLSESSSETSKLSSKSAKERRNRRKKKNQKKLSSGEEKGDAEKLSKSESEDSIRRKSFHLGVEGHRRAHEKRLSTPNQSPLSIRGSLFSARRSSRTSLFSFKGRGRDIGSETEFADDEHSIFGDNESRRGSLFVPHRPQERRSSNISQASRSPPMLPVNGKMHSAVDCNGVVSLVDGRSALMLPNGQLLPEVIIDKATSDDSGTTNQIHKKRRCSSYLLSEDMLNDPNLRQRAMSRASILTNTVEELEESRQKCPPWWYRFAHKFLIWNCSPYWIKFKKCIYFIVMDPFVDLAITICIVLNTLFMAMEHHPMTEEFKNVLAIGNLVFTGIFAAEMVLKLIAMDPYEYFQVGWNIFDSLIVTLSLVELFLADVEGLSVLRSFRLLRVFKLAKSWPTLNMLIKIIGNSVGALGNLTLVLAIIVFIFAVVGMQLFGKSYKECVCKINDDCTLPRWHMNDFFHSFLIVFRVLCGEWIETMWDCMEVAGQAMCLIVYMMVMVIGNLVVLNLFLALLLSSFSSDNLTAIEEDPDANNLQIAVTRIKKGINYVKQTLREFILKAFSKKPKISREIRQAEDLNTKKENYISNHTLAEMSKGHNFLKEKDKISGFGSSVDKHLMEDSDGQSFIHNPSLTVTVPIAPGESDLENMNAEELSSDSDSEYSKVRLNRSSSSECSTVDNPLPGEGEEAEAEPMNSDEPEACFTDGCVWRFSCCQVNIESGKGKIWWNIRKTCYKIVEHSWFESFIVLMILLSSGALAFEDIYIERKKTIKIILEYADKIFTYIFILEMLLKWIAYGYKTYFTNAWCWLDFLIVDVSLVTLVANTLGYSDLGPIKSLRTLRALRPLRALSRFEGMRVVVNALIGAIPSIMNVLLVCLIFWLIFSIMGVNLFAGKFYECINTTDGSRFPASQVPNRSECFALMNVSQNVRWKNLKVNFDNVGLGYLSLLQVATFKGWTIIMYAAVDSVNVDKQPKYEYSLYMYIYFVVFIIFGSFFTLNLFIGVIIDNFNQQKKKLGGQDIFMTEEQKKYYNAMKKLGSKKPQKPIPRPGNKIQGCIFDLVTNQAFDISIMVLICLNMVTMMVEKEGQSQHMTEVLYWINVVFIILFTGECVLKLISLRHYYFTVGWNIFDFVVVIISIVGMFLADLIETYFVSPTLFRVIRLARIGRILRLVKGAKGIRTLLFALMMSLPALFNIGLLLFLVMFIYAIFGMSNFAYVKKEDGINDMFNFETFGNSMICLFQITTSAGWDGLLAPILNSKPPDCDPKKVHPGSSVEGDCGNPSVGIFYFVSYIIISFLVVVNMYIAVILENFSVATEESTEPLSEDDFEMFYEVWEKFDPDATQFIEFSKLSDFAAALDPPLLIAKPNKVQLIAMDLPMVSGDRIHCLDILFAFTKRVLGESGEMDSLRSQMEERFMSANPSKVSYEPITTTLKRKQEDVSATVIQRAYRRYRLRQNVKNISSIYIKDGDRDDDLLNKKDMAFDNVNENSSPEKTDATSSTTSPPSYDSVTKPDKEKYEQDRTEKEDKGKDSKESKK

The assay has as its target T1, human Nav1.7 channels (Homo sapiens, UniProt Q15858).
T1 construct: host or cells: HEK293
The experiment in a line: hNav1.7 channel assay, whole cell patch clamp, two-pulse protocol. It counts as cell-based. The note with it: TP2 (inactivated phase inhibition), HEK293 cells stably expressing human Nav1.7, read-out: Inhibition activity: percent inhibition on the inactivated state of hNav1.7. An excerpt:
Whole cell patch clamp technique was used to investigate the inhibitory effects of the compound of Examples on human Nav1.7 channels, stably expressed in HEK293 cells. Human Nav1.7 recombinant cell line (CYL3011-precisION) was purchased from Eurofins.
Two-pulse protocol was used every 10 seconds to assess the state-dependent inhibition by Examples. From the holding potential of −90 mV, pre-pulse (200 ms at −120 mV) was followed by test pulse1 ([…]), then test pulse2 (TP2: 20 ms at 0 mV) was evoked after inter-pulse (20 ms at −100 mV).
Peak current amplitudes were measured for test pulses TP1 (resting phase inhibition) and TP2 (inactivated phase inhibition). The following solutions were used for screening assay: External (mM): 145 NaCl, 1 MgCl2, 1.8 CaCl2, 10 Hepes, 5 Glucose, pH 7.4, 300 mOsm; Internal (mM): 120 CsF, 10 NaCl, 10 EGTA, 10 HEPES, pH 7.2, 290 mOsm.
The inhibition on the inactivated state of hNav1.7 was calculated as: % inhibition (inactivation state)=(1−(ITP2, TA/ITP2, Control)×100%, where ITP2 (the inward peak Na+ currents), Control and ITP2, TA were elicited by the TP2 in control (vehicle only) and in the presence of a test article (TA) indicating Examples, respectively.
On the technique in general: The patch-clamp technique gives a direct electrical read-out from membranes.
As to `O=C(NCc1cccc[n+]1[O-])c1cccc(-c2ccc(C(F)(F)F)cc2)c1` [Example 1, N-[(1-oxidopyridin-1-ium-2-yl)methyl]-3-[4-(trifluoromethyl)phenyl]benzamide], the inhibition (commonly the relative decrease from the control value, in per cent) at 10 µM lay in the range of 70 to 100%.
As for `O=C(NCc1cccc[n+]1[O-])c1cccc(-c2cccc(Cl)c2)c1` [Example 4, 3-(3-chlorophenyl)-N-[(1-oxidopyridin-1-ium-2-yl)methyl]benzamide], the figure is 40 to 70%; as for `O=C(NCc1cccc[n+]1[O-])c1cccc(-c2cccc(C(F)(F)F)c2)c1` [Example 5, N-[(1-oxidopyridin-1-ium-2-yl)methyl]-3-[3-(trifluoromethyl)phenyl]benzamide], 40 to 70%; as for `O=C(NCc1cccc[n+]1[O-])c1cccc(-c2ccc(Cl)c(Cl)c2)c1` [Example 6, 3-(3,4-dichlorophenyl)-N-[(1-oxidopyridin-1-ium-2-yl)methyl]benzamide], 70 to 100%.
Take `O=C(NCc1cccc[n+]1[O-])c1cccc(-c2cc(Cl)cc(Cl)c2)c1` [Example 7, 3-(3,5-dichlorophenyl)-N-[(1-oxidopyridin-1-ium-2-yl)methyl]benzamide]: the inhibition at 10 µM was 40 to 70%.
As for `O=C(NCc1cccc[n+]1[O-])c1cccc(-c2cccc(OC(F)(F)F)c2)c1` [Example 8, N-[(1-oxidopyridin-1-ium-2-yl)methyl]-3-[3-(trifluoromethoxy)phenyl]benzamide], the figure is 40 to 70%; as for `O=C(NCc1cccc[n+]1[O-])c1cccc(-c2ccc(Cl)cc2Cl)c1` [Example 9, 3-(2,4-dichlorophenyl)-N-[(1-oxidopyridin-1-ium-2-yl)methyl]benzamide], 70 to 100%.
With `O=C(NCc1cccc[n+]1[O-])c1cccc(-c2cc(Cl)ccc2Cl)c1` [Example 10, 3-(2,5-dichlorophenyl)-N-[(1-oxidopyridin-1-ium-2-yl)methyl]benzamide], the inhibition at 10 µM lay within 40 to 70%.
As for `O=C(NCc1cccc[n+]1[O-])c1cccc(-c2ccc(C(F)(F)F)cc2C(F)(F)F)c1` [Example 11, 3-[2,4-bis(trifluoromethyl)phenyl]-N-[(1-oxidopyridin-1-ium-2-yl)methyl]benzamide], the figure is 70 to 100%; as for `O=C(NCc1cccc[n+]1[O-])c1cccc(-c2ccccc2)c1` [Example 12, N-[(1-oxidopyridin-1-ium-2-yl)methyl]-3-phenyl-benzamide], 40 to 70%.
Under `CC(C)(C)c1ccc(-c2cccc(C(=O)NCc3cccc[n+]3[O-])c2)cc1` [Example 13, 3-(4-tert-butylphenyl)-N-[(1-oxidopyridin-1-ium-2-yl)methyl]benzamide] stands 40 to 70%.
As for `Cc1cc(Cl)ccc1-c1cccc(C(=O)NCc2cccc[n+]2[O-])c1` [Example 15, 3-(4-chloro-2-methyl-phenyl)-N-[(1-oxidopyridin-1-ium-2-yl)methyl]benzamide], the figure is 40 to 70%.
Take `O=C(NCc1cccc[n+]1[O-])c1cccc(-c2ccc(C(F)(F)F)cc2F)c1` [Example 16, 3-[2-fluoro-4-(trifluoromethyl)phenyl]-N-[(1-oxidopyridin-1-ium-2-yl)methyl]benzamide]: the inhibition at 10 µM is 40 to 70%.
As for `O=C(NCc1cccc[n+]1[O-])c1cccc(-c2ccc(F)c(Cl)c2)c1` [Example 17, 3-(3-chloro-4-fluoro-phenyl)-N-[(1-oxidopyridin-1-ium-2-yl)methyl]benzamide], the figure is 40 to 70%; as for `O=C(NCc1cccc[n+]1[O-])c1cccc(-c2ccc(F)cc2)c1` [Example 18, 3-(4-fluorophenyl)-N-[(1-oxidopyridin-1-ium-2-yl)methyl]benzamide], 40 to 70%; as for `O=C(NCc1cccc[n+]1[O-])c1cccc(-c2ccccc2Cl)c1` [Example 20, 3-(2-chlorophenyl)-N-[(1-oxidopyridin-1-ium-2-yl)methyl]benzamide], 40 to 70%.
For `O=C(NCc1cccc[n+]1[O-])c1cccc(-c2ccccc2C(F)(F)F)c1` [Example 21, N-[(1-oxidopyridin-1-ium-2-yl)methyl]-3-[2-(trifluoromethyl)phenyl]benzamide], the inhibition at 10 µM lay within 40 to 70%.
As for `Cc1cccc(-c2cccc(C(=O)NCc3cccc[n+]3[O-])c2)c1` [Example 23, 3-(m-tolyl)-N-[(1-oxidopyridin-1-ium-2-yl)methyl]benzamide], the figure is 40 to 70%.
As for `CC(C)c1ccc(-c2cccc(C(=O)NCc3cccc[n+]3[O-])c2)cc1` [Example 24, 3-(4-isopropylphenyl)-N-[(1-oxidopyridin-1-ium-2-yl)methyl]benzamide], the figure is 10 to 40%; as for `O=C(NCc1cccc[n+]1[O-])c1cccc(-c2ccccc2F)c1` [Example 25, 3-(2-fluorophenyl)-N-[(1-oxidopyridin-1-ium-2-yl)methyl]benzamide], 70 to 100%; as for `COc1cc(Cl)ccc1-c1cccc(C(=O)NCc2cccc[n+]2[O-])c1` [Example 26, 3-(4-chloro-2-methoxy-phenyl)-N-[(1-oxidopyridin-1-ium-2-yl)methyl]benzamide], 10 to 40%.
As for `Cc1cc(-c2cccc(C(=O)NCc3cccc[n+]3[O-])c2)ccc1Cl` [Example 28, 3-(4-chloro-3-methyl-phenyl)-N-[(1-oxidopyridin-1-ium-2-yl)methyl]benzamide], the figure is 70 to 100%.
On to `O=C(NCc1cccc[n+]1[O-])c1cccc(-c2cc(F)cc(Cl)c2)c1` [Example 29, 3-(3-chloro-5-fluoro-phenyl)-N-[(1-oxidopyridin-1-ium-2-yl)methyl]benzamide], for which the inhibition at 10 µM fell in the range of 70 to 100%.
`O=C(NCc1cccc[n+]1[O-])c1cccc(-c2ccc(Cl)c(F)c2)c1` [Example 30, 3-(4-chloro-3-fluoro-phenyl)-N-[(1-oxidopyridin-1-ium-2-yl)methyl]benzamide]: the inhibition at 10 µM is 40 to 70%.
`O=C(NCc1cccc[n+]1[O-])c1cccc(-c2ccc(F)cc2F)c1` [Example 31, 3-(2,4-difluorophenyl)-N-[(1-oxidopyridin-1-ium-2-yl)methyl]benzamide]: the inhibition at 10 µM is 40 to 70%.
As for `O=C(NCc1cccc[n+]1[O-])c1cccc(-c2cc(F)cc(F)c2)c1` [Example 32, 3-(3,5-difluorophenyl)-N-[(1-oxidopyridin-1-ium-2-yl)methyl]benzamide], the figure is 70 to 100%; as for `O=C(NCc1cccc[n+]1[O-])c1cccc(-c2cc(F)c(F)c(F)c2)c1` [Example 33, N-[(1-oxidopyridin-1-ium-2-yl)methyl]-3-(3,4,5-trifluorophenyl)benzamide], 10 to 40%.
Consider `O=C(NCc1cccc[n+]1[O-])c1cccc(-c2cccc(F)c2F)c1` [Example 34, 3-(2,3-difluorophenyl)-N-[(1-oxidopyridin-1-ium-2-yl)methyl]benzamide], for which the inhibition at 10 µM lay in the range of 10 to 40%.
Consider `CC(C)c1cccc(-c2cccc(C(=O)NCc3cccc[n+]3[O-])c2)c1` [Example 35, 3-(3-isopropylphenyl)-N-[(1-oxidopyridin-1-ium-2-yl)methyl]benzamide], for which the inhibition at 10 µM fell in the range of 70 to 100%.
As for `O=C(NCc1cccc[n+]1[O-])c1cccc(-c2ccc(C3CC3)cc2)c1` [Example 36, 3-(4-cyclopropylphenyl)-N-[(1-oxidopyridin-1-ium-2-yl)methyl]benzamide], the figure is 40 to 70%; as for `Cc1cc(C(F)(F)F)ccc1-c1cccc(C(=O)NCc2cccc[n+]2[O-])c1` [Example 38, 3-[2-methyl-4-(trifluoromethyl)phenyl]-N-[(1-oxidopyridin-1-ium-2-yl)methyl]benzamide], 40 to 70%; as for `O=C(NCc1cccc[n+]1[O-])c1cccc(-c2ccc(F)c(C(F)(F)F)c2)c1` [Example 39, 3-[4-fluoro-3-(trifluoromethyl)phenyl]-N-[(1-oxidopyridin-1-ium-2-yl)methyl]benzamide], 70 to 100%.
In the case of `COc1ccccc1-c1cccc(C(=O)NCc2cccc[n+]2[O-])c1` [Example 40, 3-(2-methoxyphenyl)-N-[(1-oxidopyridin-1-ium-2-yl)methyl]benzamide], the inhibition at 10 µM lay within 70 to 100%.
Consider `O=C(NCc1cccc[n+]1[O-])c1cccc(-c2cc(F)cc(C(F)(F)F)c2)c1` [Example 41, 3-[3-fluoro-5-(trifluoromethyl)phenyl]-N-[(1-oxidopyridin-1-ium-2-yl)methyl]benzamide], for which the inhibition at 10 µM lay within 10 to 40%.
As for `O=C(NCc1cccc[n+]1[O-])c1cccc(-c2ccc(C(F)(F)F)c(F)c2)c1` [Example 42, 3-[3-fluoro-4-(trifluoromethyl)phenyl]-N-[(1-oxidopyridin-1-ium-2-yl)methyl]benzamide], the figure is 40 to 70%; as for `Cc1cc(-c2cccc(C(=O)NCc3cccc[n+]3[O-])c2)ccc1C(F)(F)F` [Example 43, 3-[3-methyl-4-(trifluoromethyl)phenyl]-N-[(1-oxidopyridin-1-ium-2-yl)methyl]benzamide], 70 to 100%.
As for `CC(C)(O)c1ccc(-c2cccc(C(=O)NCc3cccc[n+]3[O-])c2)cc1` [Example 44, 3-[4-(1-hydroxy-1-methyl-ethyl)phenyl]-N-[(1-oxidopyridin-1-ium-2-yl)methyl]benzamide], the figure is 70 to 100%.
